From patent US20260207537A1, “PHARMACEUTICAL COMPOSITION FOR PREVENTION AND TREATMENT OF AORTIC ANEURYSM, AND PROCESSED FOOD” (priority 2020, published 2026)

Key:
[1] = tested on: abdominal aortic aneurysm; test: Regression of established abdominal aortic aneurysm, administration from Day 7 (Example 3); format: in vivo, rat
Experimental: SD-male rats of 4 weeks old (70 to 90 G) were used. The rats were subjected to the above-described abdominal aortic aneurysm induction treatment. On Day 7, the abdomen of the rat was opened to confirm the occurrence of an abdominal aortic aneurysm, the vessel diameter was measured, and then the abdomen was closed. Subsequently, a control group was fed normal feed and water, while a tricaprin administration group was fed tricaprin in an amount of 1,145 MG/KG/day in addition to the normal feed.
Seven days after the abdominal closure (Day 14 after the abdominal aortic aneurysm induction treatment), the abdomen was opened again, and the blood vessel diameter was measured. Some rats of the control group were not subjected to laparotomy on Day 14 and continued to be fed normal feed and water. The amount of the neutral fats in the blood vessel, the amount of lipids in the blood, the blood glucose level, and the body weight were measured from the day when the abdominal aortic aneurysm induction treatment was performed.
FIGS. 3(A), 3(B), and 3(C) show the control group (depicted as “CONTROL”), and FIGS. 3(D), 3(E), and 3(F) show the tricaprin administration group (depicted as “C10-TG”).
Photographs under “DAY 0” are photographs taken when the abdominal aortic aneurysm induction treatment was performed (FIG. 3(A) and FIG. 3(D)). […]

[2] = tested on: abdominal aortic aneurysm; test: Abdominal aortic aneurysm induction model, preventive forced administration (Examples 1 and 2); format: in vivo, rat; details: for Rupture rate of abdominal aortic aneurysm: among rats with observed aneurysm, control group 28.6; for Rupture confirmed (abdominal aortic aneurysm) / Rupture not confirmed (abdominal aortic aneurysm): number of rats among rats with observed aneurysm; for Survival rate: Example 2, FIG. 1; for Diameter of the aorta in the abdominal aortic aneurysm induction part: Example 2, FIG. 2, after completion of the test, control group about 4 MM
Experimental: SD-male rats of 4 weeks old (70 to 90 G) were used. Eighteen rats and eight rats were prepared as a control group and a medium chain fatty acid administration group, respectively.
Upon arrival, all rats were preliminarily fed normal feed without additional supplements for one week. Then, the medium chain fatty acid administration group was fed normal feed and forcibly administered with high-content neutral fats (decanoic acid occupied 98% of constituent fatty acids) in an amount of 1,145 MG/KG body-weight/day. The control group was fed normal feed and forcibly administered with water in an amount of 1,145 MG/KG body-weight/day.
In this test, the medium chain fatty acid was fed in the form of tricaprin. Tricaprin is a substance in which decanoic acid (C10), a linear saturated fatty acid having 10 carbon atoms, is bonded to glycerol. Thus, the high-content neutral fats are medium chain fatty acids of the present invention.
From the second week after the arrival, all rats were fed high-fat feed. Then, the medium chain fatty acid administration group was forcibly administered with the high-content neutral fats in an amount of 1,145 MG/KG body-weight/day in addition to the high-fat feed. Furthermore, the control group was forcibly administered with water in an amount of 1,145 MG/KG body-weight/day in addition to the high-fat feed.
Three weeks after the arrival, an abdominal aortic aneurysm induction treatment was performed. In the abdominal aortic aneurysm induction treatment, a catheter is inserted in the rat abdominal aorta and the inserted catheter is ligated with the abdominal aorta. The treatment was performed according to the method disclosed in PTL 3.
After that, for the next four weeks, the control group had been fed the high-fat feed and forcibly administered with water in an amount of 1,145 MG/KG body-weight/day. Furthermore, the medium chain fatty acid administration group had been fed the high-fat feed and forcibly administered with the high-content neutral fats. Then, four weeks after the abdominal aortic aneurysm induction treatment, the rats were dissected.
Note that the abdominal aortic aneurysm was determined to have occurred if the blood vessel at the site where the abdominal aortic aneurysm induction treatment was performed dilated to twice or more its original thickness.
Next, test results obtained by using tricaprin (an ester of three decanoic acids and glycerol) and tricaprylin (an ester of three octanoic acids of C8 and glycerol) as the medium chain fatty acid is shown. The animal model preparation method is the same as that in Example 1. A group in which tricaprin (C10) was given is referred to as a tricaprin administration group and a group in which tricaprylin (C8) was given is referred to as a tricaprylin administration group.
Twenty-three, eleven, and eighteen model animals were prepared as a control group, the tricaprylin administration group, and the tricaprin administration group, respectively.

[3] = Example 2, number of rats (tricaprylin 11, tricaprin 18 animals)
[4] = Example 2, number of rats (tricaprylin 11, tricaprin 18 animals), dilated to twice or more original thickness

SMILES	Maximum aneurysm diameter ([1]; Day 14, 1,145 MG/KG/day from Day 7, 2.79 MM on Day 7 before administration, control 2.81 to 3.59 MM) [MM]	Weight gain rate versus control group ([1]; Example 3, measured from the day of induction treatment)	Frequency of occurrence of abdominal aortic aneurysm ([2]; Example 1, 1,145 MG/KG body-weight/day, control group 38.9) [%]	Rupture rate of abdominal aortic aneurysm ([2]; Example 1) [%]	Rupture confirmed (abdominal aortic aneurysm) ([2]; Example 1)	Rupture not confirmed (abdominal aortic aneurysm) ([2]; Example 1)	Occurrence not confirmed (abdominal aortic aneurysm) ([2]; Example 1, number of rats of 8, 1,145 MG/KG body-weight/day forced administration, high-fat feed, dissected four weeks after induction)	Occurrence confirmed (abdominal aortic aneurysm) ([2]; Example 1, number of rats of 8, vessel dilated to twice or more its original thickness, 1,145 MG/KG body-weight/day)	Survival rate ([2]; during the test period) [%]	Diameter of the aorta in the abdominal aortic aneurysm induction part [2]	Rupture rate of abdominal aortic aneurysm ([2]; Example 2) [%]	Frequency of occurrence of abdominal aortic aneurysm ([2]; Example 2, control group 30.4) [%]	Occurrence not confirmed (abdominal aortic aneurysm) [2, 3]	Occurrence confirmed (abdominal aortic aneurysm) [2, 4]	Rupture confirmed (abdominal aortic aneurysm) ([2]; Example 2)	Rupture not confirmed (abdominal aortic aneurysm) ([2]; Example 2)	Survival rate ([2]; until Day 26 after induction treatment, control declined on Day 17) [%]
CCCCCCCCCC(=O)OCC(COC(=O)CCCCCCCCC)OC(=O)CCCCCCCCC [Tricaprin, tricaprin]	1.89	no difference	12.5	0	0	1	7	1	100	about 2.2 MM	0	5.6	17	1	0	1	
CCCCCCCC(=O)OCC(COC(=O)CCCCCCC)OC(=O)CCCCCCC [Tricaprylin, tricaprylin]										about 3.5 MM	33.3	27.3	8	3	1	2	100
